According to patent US20080176838A1, “Dpp-IV Inhibitors” (SANTHERA PHARMACEUTICALS (DEUTSCHLAND) AG, priority 2004, published 2008):

These compounds were tested against T1, DPP-IV (Homo sapiens, UniProt P27487) (assay: Continuous fluorimetric assay of inhibition of DPP-IV peptidase activity (cleavage of Gly-Pro-AMC)). Conditions: substrate Gly-Pro-AMC 16 μM, pH 7.4, 25° C., 1% DMSO.
T1 construct: Soluble human DPP-IV lacking the transmembrane anchor (Gly31-Pro766); Pre-Pro-alpha-mating factor leader (secretion fusion) (N, cleaved yes); made in house
Type: biochemical
Method: Inhibition of DPP-IV peptidase activity was monitored with a continuous fluorimetric assay. This assay is based on the cleavage of the substrate Gly-Pro-AMC (Bachem) by DPP-IV, releasing free AMC. The assay is carried out in 96-well microtiterplates. In a total volume of 100 μL, compounds are preincubated with […] DPP-IV employing a buffer containing 10 mM Hepes, 150 mM NaCl, 0.005% Tween 20 (pH 7.4). […] The final concentration of DMSO is 1%. The inhibitory potential of the compounds were determined.
Soluble human DPP-IV lacking the transmembrane anchor (Gly31-Pro766) was expressed in a recombinant YEAST-strain as Pre-Pro-alpha-mating fusion.

T1 sequence (P27487 31-766): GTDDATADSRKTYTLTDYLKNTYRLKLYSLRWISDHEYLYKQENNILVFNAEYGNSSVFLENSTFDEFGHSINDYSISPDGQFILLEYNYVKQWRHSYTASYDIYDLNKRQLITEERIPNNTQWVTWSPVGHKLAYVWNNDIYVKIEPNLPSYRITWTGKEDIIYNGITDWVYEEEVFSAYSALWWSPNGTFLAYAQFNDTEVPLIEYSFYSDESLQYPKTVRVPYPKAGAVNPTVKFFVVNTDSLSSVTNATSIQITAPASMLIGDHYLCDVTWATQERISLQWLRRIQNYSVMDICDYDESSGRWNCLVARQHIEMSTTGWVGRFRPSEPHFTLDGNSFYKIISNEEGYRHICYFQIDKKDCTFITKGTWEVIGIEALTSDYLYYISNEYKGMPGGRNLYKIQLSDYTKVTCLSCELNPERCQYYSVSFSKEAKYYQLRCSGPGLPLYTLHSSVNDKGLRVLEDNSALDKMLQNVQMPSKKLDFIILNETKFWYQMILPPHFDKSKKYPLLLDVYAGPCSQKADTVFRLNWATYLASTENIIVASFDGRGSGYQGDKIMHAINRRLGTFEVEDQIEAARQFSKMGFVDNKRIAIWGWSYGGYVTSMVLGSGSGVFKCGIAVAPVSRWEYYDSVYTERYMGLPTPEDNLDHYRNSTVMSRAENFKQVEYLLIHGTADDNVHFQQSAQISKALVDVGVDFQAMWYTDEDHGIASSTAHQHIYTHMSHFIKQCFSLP

IC50	Structure (SMILES)
< 100 nM	N[C@@H](CCN1CCC[C@H]1CNC(=O)C1CC1)Cc1ccccc1F [Example 27, Cyclopropanecarboxylic acid {1-[(3R)-amino-4-(2-fluoro-phenyl)-butyl]-pyrrolidin-(2S)-ylmethyl}-amide]
< 100 nM	N#Cc1cccc(S(=O)(=O)NC[C@@H]2CCCN2CC[C@H](N)Cc2ccccc2F)c1 [Example 31]
101 to 1000 nM	N[C@@H](CCN1Cc2ccccc2C[C@H]1C(=O)NC1CC1)Cc1ccccc1F [Example 26]
101 to 1000 nM	N[C@@H](CCN1Cc2ccccc2C[C@H]1COc1cccc(F)c1)Cc1ccccc1F [Example 47]
101 to 1000 nM	N[C@@H](CCN1CCC[C@H]1COCc1ccccc1)Cc1ccccc1F [Example 44, (1R)-3-[(2S)-2-Benzyloxymethyl-pyrrolidin-1-yl]-1-(2-fluoro-benzyl)-propylamine]
< 100 nM	N[C@@H](CCN1CCC[C@H]1CNS(=O)(=O)c1ccccc1)Cc1ccccc1F [Example 25]
101 to 1000 nM	N[C@@H](CCN1Cc2ccccc2C[C@H]1CNC(=O)C1CC1)Cc1ccccc1F [Example 28]
< 100 nM	N[C@@H](CCN1CCC[C@H]1COc1cccc(F)c1)Cc1ccccc1F [Example 46]

The remaining lines, values behind:

Structure (SMILES)	IC50
N[C@@H](CCN1CCOCC1CNS(=O)(=O)C1CC1)Cc1ccccc1F (some centres unmarked) [Example 35]	101 to 1000 nM
N[C@@H](CCN1CCC[C@H]1COc1cccc(F)c1)Cc1cccc(Cl)c1 [Example 45, (1R)-(3-Chloro-benzyl)-3-[(2S)-(3-fluoro-phenoxymethyl)-pyrrolidin-1-yl]-propylamine]	< 100 nM
CS(=O)(=O)NC[C@@H]1CCCN1CC[C@H](N)Cc1ccccc1F [Example 30]	< 100 nM
N[C@@H](CCN1CCC[C@H]1CNS(=O)(=O)C1CC1)Cc1ccccc1F [Example 29]	< 100 nM
N[C@@H](CCN1CCC[C@H]1CNS(=O)(=O)CC(F)(F)F)Cc1ccccc1F [Example 33]	< 100 nM
COC[C@@H]1CCCN1CC[C@H](N)Cc1ccccc1F [Example 48]	101 to 1000 nM
